Laboratory results: ChEMBL document CHEMBL1128680, “6-substituted 2,4-diamino-5-methylpyrido[2,3-d]pyrimidines as inhibitors of dihydrofolate reductases from Pneumocystis carinii and Toxoplasma gondii and as antitumor agents” (J Med Chem, 1995)

Assays:
[1] = target: T1, Bifunctional dihydrofolate reductase-thymidylate synthase (Toxoplasma gondii, UniProt Q07422)
T1 sequence (Q07422 whole entry): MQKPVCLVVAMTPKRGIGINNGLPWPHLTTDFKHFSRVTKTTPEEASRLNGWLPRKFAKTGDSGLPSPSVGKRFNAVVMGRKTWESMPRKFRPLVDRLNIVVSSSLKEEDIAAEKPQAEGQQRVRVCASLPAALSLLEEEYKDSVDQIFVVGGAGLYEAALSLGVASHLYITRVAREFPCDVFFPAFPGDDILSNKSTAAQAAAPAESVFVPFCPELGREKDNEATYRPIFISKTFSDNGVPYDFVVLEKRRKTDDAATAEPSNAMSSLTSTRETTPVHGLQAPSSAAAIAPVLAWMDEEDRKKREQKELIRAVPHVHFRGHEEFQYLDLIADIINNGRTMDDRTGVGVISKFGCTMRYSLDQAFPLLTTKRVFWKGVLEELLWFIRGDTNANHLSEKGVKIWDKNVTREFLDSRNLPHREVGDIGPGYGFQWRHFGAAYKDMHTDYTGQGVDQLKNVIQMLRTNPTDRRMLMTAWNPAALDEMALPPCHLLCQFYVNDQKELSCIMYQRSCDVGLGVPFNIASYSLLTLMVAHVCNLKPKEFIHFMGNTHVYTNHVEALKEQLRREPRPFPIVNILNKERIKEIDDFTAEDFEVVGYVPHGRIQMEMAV
Description: Inhibitory activity against Dihydrofolate reductase from Toxoplasma gondii

[2] = target: Dihydrofolate reductase (Lactobacillus casei, UniProt P00381)
Description: Inhibitory activity against Dihydrofolate reductase from Lactobacillus casei

[3] = target: T2, Dihydrofolate reductase (Pneumocystis carinii, UniProt P16184)
T2 sequence (P16184 whole entry): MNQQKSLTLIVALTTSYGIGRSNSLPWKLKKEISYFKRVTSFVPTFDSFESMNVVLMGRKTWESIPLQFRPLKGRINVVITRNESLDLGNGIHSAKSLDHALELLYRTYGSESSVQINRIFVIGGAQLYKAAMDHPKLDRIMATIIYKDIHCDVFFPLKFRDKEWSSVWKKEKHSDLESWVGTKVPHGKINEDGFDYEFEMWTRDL
Description: Inhibitory activity against Dihydrofolate reductase from Pneumocystis carinii

[4] = target: T3, Dihydrofolate reductase (Rattus norvegicus, UniProt Q920D2)
T3 sequence (Q920D2 whole entry): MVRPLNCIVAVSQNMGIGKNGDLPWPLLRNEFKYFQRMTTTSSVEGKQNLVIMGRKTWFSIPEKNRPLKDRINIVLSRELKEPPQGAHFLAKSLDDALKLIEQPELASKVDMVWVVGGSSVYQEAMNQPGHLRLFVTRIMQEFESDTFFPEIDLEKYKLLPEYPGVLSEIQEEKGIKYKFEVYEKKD
Description: Inhibitory activity against Dihydrofolate reductase from rat liver

[5] = Ratio of the inhibitory concentrations against Toxoplasma gondii […] and Toxoplasma gondii DHFR.
[6] = tested on: Toxoplasma gondii; test: Inhibitory activity against cultured Toxoplasma gondii; type: functional, organism-based
[7] = tested on: HCT-15; test: Cytotoxic activity against HCT-15 colon cancer cell line; type: functional; conditions: Homo sapiens
[8] = tested on: HCT-116; test: Cytotoxic activity against HCT116 colon cancer cell line; type: functional; conditions: Homo sapiens
[9] = tested on: SK-MEL-5; test: Cytotoxic activity against SK-MEL-5 Melanoma cell line; type: functional; conditions: Homo sapiens
[10] = tested on: SR; test: Cytotoxic activity against SR Leukemia cell line; type: functional; conditions: Homo sapiens
[11] = tested on: A549; test: Cytotoxic activity against A549/ATCC non-small cell-lung cancer cell line; type: functional; conditions: Homo sapiens
[12] = tested on: MDA-N; test: Cytotoxic activity against MDA-N Breast cancer cell line; type: functional; conditions: Homo sapiens
[13] = tested on: SF-295; test: Cytotoxic activity against SF-295 CNS cancer cell line; type: functional; conditions: Homo sapiens
[14] = tested on: MDA-MB-435; test: Cytotoxic activity against MDA-MB-435 Breast cancer cell line; type: functional; conditions: Homo sapiens
[15] = tested on: LOX IMVI; test: Cytotoxic activity against LOXIMVI Melanoma cell line; type: functional; conditions: Homo sapiens
[16] = tested on: SF-268; test: Cytotoxic activity against SF-268 CNS canser cell line; type: functional; conditions: Homo sapiens
[17] = tested on: U-251; test: Cytotoxic activity against U251 CNS cancer cell line; type: functional; conditions: Homo sapiens
[18] = tested on: NCI-H322M; test: Cytotoxic activity against NCI-H322M non-small cell-lung cancer cell line; type: functional; conditions: Homo sapiens
[19] = tested on: K562; test: Cytotoxic activity against K-562 Leukemia cell line; type: functional; conditions: Homo sapiens
[20] = tested on: HT-29; test: Cytotoxic activity against HT-29 colon cancer cell line; type: functional; conditions: Homo sapiens
[21] = tested on: DU-145; test: Cytotoxic activity against DU-145 Prostate cancer cell line; type: functional; conditions: Homo sapiens
[22] = tested on: CCRF-CEM; test: Cytotoxic activity against CCRF-CEM Leukemia cell line; type: functional; conditions: Homo sapiens
[23] = tested on: MDA-MB-231; test: Cytotoxic activity against MDA-MB-231/ATCC Breast cancer cell line; type: functional; conditions: Homo sapiens
[24] = tested on: UACC-257; test: Cytotoxic activity against UACC-257 Melanoma cell line; type: functional; conditions: Homo sapiens
[25] = tested on: 786-0; test: Cytotoxic activity against 786-0 Renal cancer cell line; type: functional; conditions: Homo sapiens
[26] = tested on: ACHN; test: Cytotoxic activity against ACHN Renal cancer cell line; type: functional; conditions: Homo sapiens
[27] = tested on: MOLT-4; test: Cytotoxic activity against MOLT-4 Leukemia cell line; type: functional; conditions: Homo sapiens
[28] = tested on: PC-3; test: Cytotoxic activity against PC-3 Prostate cancer cell line; type: functional; conditions: Homo sapiens
[29] = tested on: IGROV-1; test: Cytotoxic activity against IGROV1 Ovarian cancer cell line; type: functional; conditions: Homo sapiens
[30] = tested on: UACC-62; test: Cytotoxic activity against UACC-62 Melanoma cell line; type: functional; conditions: Homo sapiens
[31] = tested on: SW-620; test: Cytotoxic activity against SW-620 colon cancer cell line; type: functional; conditions: Homo sapiens
[32] = tested on: NCI-H460; test: Cytotoxic activity against NCI-H460 non-small cell-lung cancer cell line; type: functional; conditions: Homo sapiens

Dihydrofolate reductase (Lactobacillus casei, UniProt P00381), sequence (P00381 whole entry): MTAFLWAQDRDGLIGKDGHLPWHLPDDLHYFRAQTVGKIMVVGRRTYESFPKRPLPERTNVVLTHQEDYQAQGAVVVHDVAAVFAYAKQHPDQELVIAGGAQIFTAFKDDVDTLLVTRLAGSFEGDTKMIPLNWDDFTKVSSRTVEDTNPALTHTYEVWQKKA

## COc1cc(N(Cc2cnc3nc(N)nc(N)c3c2C)C(C)C)cc(OC)c1OC
[1]
  IC50: 6.7 nM
[2]
  IC50: 210 nM
[3]
  IC50: 13.4 nM
[4]
  IC50: 17.5 nM

## COc1cc(NCc2ccc3nc(N)nc(N)c3c2C)cc(OC)c1OC [TRIMETREXATE]
[2]
  IC50: 27 nM

## C#CCN(Cc1cnc2nc(N)nc(N)c2c1C)c1cc(OC)c(OC)c(OC)c1
[1]
  IC50: 7.7 nM
[3]
  IC50: 53.5 nM
[4]
  IC50: 11.8 nM

## COc1ccc(OC)c(NCc2cnc3nc(N)nc(N)c3c2C)c1
[5]
  Ratio: 94
[1]
  IC50: 16 nM
[2]
  IC50: 39 nM
[6]
  IC50: 1500 nM
[3]
  IC50: 46 nM
[4]
  IC50: 128 nM

## Cc1c(CNc2cccc3ccccc23)cnc2nc(N)nc(N)c12
[5]
  Ratio: 7
[1]
  IC50: 14.5 nM
[6]
  IC50: 100 nM
[3]
  IC50: 573 nM
[4]
  IC50: 29.6 nM

## COc1ccc(OC)c(N(C)Cc2cnc3nc(N)nc(N)c3c2C)c1
[7]
  GI50: 2540 nM
[8]
  GI50: 3970 nM
[9]
  GI50: 1560 nM
[5]
  Ratio: 35
[10]
  GI50: 7450 nM
[11]
  GI50: 732 nM
[12]
  GI50: 6620 nM
[1]
  IC50: 30.1 nM
[13]
  GI50: 3410 nM
[14]
  GI50: 4180 nM
[15]
  GI50: 5820 nM
[16]
  GI50: 5910 nM
[17]
  GI50: 4210 nM
[18]
  GI50: 5560 nM
[19]
  GI50: 499 nM
[20]
  GI50: 3220 nM
[21]
  GI50: 2710 nM
[22]
  GI50: 7150 nM
[23]
  GI50: 764 nM
[6]
  IC50: 1050 nM
[3]
  IC50: 216 nM
[24]
  GI50: 20000 nM
[4]
  IC50: 407 nM
[25]
  GI50: 843 nM
[26]
  GI50: 3750 nM
[27]
  GI50: 3160 nM
[28]
  GI50: 783 nM
[29]
  GI50: 5450 nM
[30]
  GI50: 1150 nM
[31]
  GI50: 5040 nM

## COc1cc(N(C)Cc2cnc3nc(N)nc(N)c3c2C)cc(OC)c1OC
[6]
  IC50: 4700 nM

## CCOc1ccc(OCC)c(N(C)Cc2cnc3nc(N)nc(N)c3c2C)c1
[1]
  IC50: 100 nM
[3]
  IC50: 3100 nM
[4]
  IC50: 3000 nM

## COc1cc(OC)cc(N(C)Cc2cnc3nc(N)nc(N)c3c2C)c1
[7]
  GI50: 2120 nM
[8]
  GI50: 410 nM
[9]
  GI50: 596 nM
[10]
  GI50: 541 nM
[11]
  GI50: 442 nM
[12]
  GI50: 527 nM
[1]
  IC50: 58 nM
[13]
  GI50: 5150 nM
[14]
  GI50: 6930 nM
[15]
  GI50: 1990 nM
[16]
  GI50: 717 nM
[17]
  GI50: 529 nM
[19]
  GI50: 209 nM
[20]
  GI50: 5840 nM
[32]
  GI50: 544 nM
[21]
  GI50: 4360 nM
[22]
  GI50: 536 nM
[23]
  GI50: 9220 nM
[3]
  IC50: 130 nM
[24]
  GI50: 620 nM
[4]
  IC50: 170 nM
[25]
  GI50: 630 nM
[26]
  GI50: 816 nM
[27]
  GI50: 742 nM
[28]
  GI50: 594 nM
[29]
  GI50: 956 nM
[30]
  GI50: 628 nM
[31]
  GI50: 5500 nM
